Assay results as given in patent US20250304576A1 (Cancer Research Technology Limited, priority 2022, published 2025).
pKi: −log10 of the molar value.

Columns and labels:
[1] = molecular target: T1, Recombinant IKKα (Homo sapiens, UniProt O15111); assay: DELFIA IKKα kinase assay (apparent Ki, Cheng-Prusoff); format: biochemical
T1 construct: purchased Millipore, Dundee, UK
T1 sequence (O15111 1-745): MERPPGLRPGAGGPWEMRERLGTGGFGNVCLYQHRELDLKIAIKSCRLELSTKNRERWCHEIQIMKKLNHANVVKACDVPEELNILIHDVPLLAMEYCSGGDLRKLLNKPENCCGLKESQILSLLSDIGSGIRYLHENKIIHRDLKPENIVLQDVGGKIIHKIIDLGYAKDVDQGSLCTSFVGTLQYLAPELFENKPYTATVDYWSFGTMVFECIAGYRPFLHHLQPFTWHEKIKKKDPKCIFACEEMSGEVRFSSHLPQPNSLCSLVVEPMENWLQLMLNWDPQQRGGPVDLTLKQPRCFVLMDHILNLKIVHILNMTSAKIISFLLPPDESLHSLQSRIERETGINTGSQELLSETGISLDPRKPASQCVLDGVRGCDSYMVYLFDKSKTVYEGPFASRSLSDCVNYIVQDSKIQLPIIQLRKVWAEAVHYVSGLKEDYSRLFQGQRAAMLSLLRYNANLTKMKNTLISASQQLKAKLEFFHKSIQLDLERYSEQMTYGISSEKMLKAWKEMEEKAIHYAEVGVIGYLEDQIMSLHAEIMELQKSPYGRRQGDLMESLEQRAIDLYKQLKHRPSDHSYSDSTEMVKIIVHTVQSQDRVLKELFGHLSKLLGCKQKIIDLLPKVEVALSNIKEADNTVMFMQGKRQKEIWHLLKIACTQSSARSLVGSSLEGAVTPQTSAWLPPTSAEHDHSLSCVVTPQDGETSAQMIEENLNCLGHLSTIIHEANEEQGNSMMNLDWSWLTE
Method in brief: (§1)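 Recombinant IKKα or IKKβ (37 nM) with 0.375 μM biotinylated IκB-α (Ser32) peptide and 40 μM ATP in 40 mM Tris-HCl pH 7.5, 20 mM MgCl2, 60 min at 30° C. Phospho-substrate captured on streptavidin and detected by anti-phospho-IκB-α plus europium anti-mouse IgG time-resolved fluorescence; apparent Ki via Cheng-Prusoff.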

[2] = molecular target: T2, Recombinant IKKβ (Homo sapiens, UniProt O14920); assay: DELFIA IKKβ kinase assay (apparent Ki, Cheng-Prusoff); format: biochemical
T2 construct: purchased Millipore, Dundee, UK
T2 sequence (O14920 1-756): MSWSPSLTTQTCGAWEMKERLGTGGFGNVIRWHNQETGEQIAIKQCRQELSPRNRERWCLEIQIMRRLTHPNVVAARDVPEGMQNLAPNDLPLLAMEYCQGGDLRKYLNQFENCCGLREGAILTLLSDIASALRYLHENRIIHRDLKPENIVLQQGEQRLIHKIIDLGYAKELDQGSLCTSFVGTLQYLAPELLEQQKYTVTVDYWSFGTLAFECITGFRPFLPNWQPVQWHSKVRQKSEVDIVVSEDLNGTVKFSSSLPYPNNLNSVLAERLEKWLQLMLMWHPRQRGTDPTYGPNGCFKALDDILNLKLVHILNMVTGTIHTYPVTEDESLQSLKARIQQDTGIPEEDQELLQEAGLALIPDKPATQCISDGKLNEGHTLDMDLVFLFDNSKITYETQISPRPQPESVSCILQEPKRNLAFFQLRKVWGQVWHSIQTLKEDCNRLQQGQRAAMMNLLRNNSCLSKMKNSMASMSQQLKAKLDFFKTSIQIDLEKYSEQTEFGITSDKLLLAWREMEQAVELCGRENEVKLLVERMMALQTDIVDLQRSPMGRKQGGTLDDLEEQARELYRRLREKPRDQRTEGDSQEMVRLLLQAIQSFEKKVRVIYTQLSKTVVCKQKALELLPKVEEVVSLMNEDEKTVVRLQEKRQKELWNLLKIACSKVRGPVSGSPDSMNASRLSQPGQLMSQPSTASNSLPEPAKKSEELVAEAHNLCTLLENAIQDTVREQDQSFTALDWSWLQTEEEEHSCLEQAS
Method in brief: as §1

[3] = non-italicised figure: DELFIA assay
[4] = DELFIA assay (first line of an example)

Q: `COC(=O)Nc1cc(-c2cc(C#CC3CC3)c3[nH]nc(N)c3c2)ccn1` [Example 179, Methyl (4-(3-amino-7-(cyclopropylethynyl)-1H-indazol-5yl)-pyridin-2-yl)carbamate] was tested. Which pKi [1, 3] did it give?
A: 8.00

Q: What about the pKi [2, 3] of the same molecule?
A: 6.02

Q: Which results are given for `Nc1n[nH]c2ccc(-c3ccnc(NC(=O)Nc4cccc(OCc5ccccc5F)c4)c3)cc12` [Example 60, 1-(4-(3-Amino-1H-indazol-5-yl)pyridin-2-yl)-3-(3-((2-fluorobenzyl)oxy)phenyl)urea]?
A: pKi [1, 3]: 7.12; pKi [2, 3]: 5.61

Q: With `Nc1cc(-c2cc(C#CC3CCOCC3)c3[nH]nc(N)c3c2)ccn1` [Example 142, 5-(2-Aminopyridin-4-yl)-7-((tetrahydro-2H-pyran-4-yl)ethynyl)-1H-indazol-3-amine] as the molecule, how does the pKi [1, 3] read?
A: 7.70

Q: And the pKi [2, 3]?
A: 6.15

Q: What does the source list for `CCCNc1cc(-c2ccc3[nH]nc(N)c3c2)ccn1` [Example 13, 5-(2-(Propylamino)pyridin-4-yl)-1H-indazol-3-amine]?
A: pKi [1, 3]: 7.31; pKi [2, 3]: 6.60

Q: `CNC(=O)C#Cc1c(-c2ccc3[nH]nc(N)c3c2)ccnc1N` [Example 98, 3-(2-Amino-4-(3-amino-1H-indazol-5-yl)pyridin-3-yl)-N-methylpropiolamide] was tested. Which pKi [1, 3] did it give?
A: < 5.00

Q: And the pKi [2, 3]?
A: < 5.00

Q: What does the source list for `CC(C)(O)c1cc2c(-c3ccc4[nH]nc(N)c4c3)ccnc2[nH]1` [Example 225, 2-(4-(3-Amino-1H-indazol-5-yl)-1H-pyrrolo[2,3-b]pyridin-2-yl)propan-2-ol]?
A: pKi [1, 4]: 7.59; pKi [2, 4]: 6.38

Q: What does the source list for `Nc1n[nH]c2ccc(-c3ccnc(NCCCCO)c3)cc12` [Example 22, 4-(4-(3-Amino-1H-indazol-5-yl)pyridin-2-ylamino)butan-1-ol]?
A: pKi [1, 3]: 7.66; pKi [2, 3]: 5.83

Q: How did the pKi [1, 4] turn out when `Nc1n[nH]c2c(C#Cc3ccccc3)cc(-c3ccnc4[nH]c(CCN5CCOCC5)cc34)cc12` [Example 281, 5-(2-(2-Morpholinoethyl)-1H-pyrrolo[2,3-b]pyridin-4-yl)-7-(phenylethynyl)-1H-indazol-3-amine] was run?
A: 7.33

Q: What about the pKi [2, 4] of the same molecule?
A: 6.48

Q: `Nc1n[nH]c2c(Cl)cc(-c3ccnc4[nH]c(CCN5CCOCC5)cc34)cc12` [Example 277, 7-Chloro-5-(2-(2-morpholinoethyl)-1H-pyrrolo[2,3-b]pyridin-4-yl)-1H-indazol-3-amine] was tested. Which pKi [1, 4] did it give?
A: 9.00

Q: And the pKi [2, 4]?
A: 7.29

Q: How did the pKi [1, 4] turn out when `Nc1n[nH]c2c(C#CC3CCOCC3)cc(-c3ccnc(NC4COC4)c3)cc12` [Example 288, 5-(2-(Oxetan-3-ylamino)pyridin-4-yl)-7-((tetrahydro-2H-pyran-4-yl)ethynyl)-1H-indazol-3-amine] was run?
A: 7.62

Q: And the pKi [2, 4]?
A: 6.30

Q: With `COC(=O)Nc1cc(-c2cc(C#CC(C)(C)OC)c3[nH]nc(N)c3c2)ccn1` [Example 182, Methyl (4-(3-amino-7-(3-methoxy-3-methylbut-1-yn-1-yl)-1H-indazol-5-yl)pyridin-2-yl)carbamate] as the molecule, how does the pKi [1, 3] read?
A: 7.47

Q: And the pKi [2, 3]?
A: 6.44

Q: How did the pKi [1, 3] turn out when `Cc1cc(-c2ccnc(N)c2)cc2c(N)n[nH]c12` [Example 2, 5-(2-Aminopyridin-4-yl)-7-methyl-1H-indazol-3-amine] was run?
A: 7.14

Q: And the pKi [2, 3]?
A: 6.34

Q: With `Nc1n[nH]c2ccc(-c3ccnc(NC4CCCCC4)c3)cc12` [Example 18, 5-(2-(Cyclohexylamino)pyridine-4-yl)-1H-indazol-3-amine] as the molecule, how does the pKi [1, 3] read?
A: 6.24

Q: And the pKi [2, 3]?
A: < 5.00

Q: How did the pKi [1, 3] turn out when `CC(C)CCNC(=O)Nc1cc(-c2ccc3[nH]nc(N)c3c2)ccn1` [Example 38, 1-(4-(3-Amino-1H-indazol-5-yl)pyridin-2-yl)-3-isopentylurea] was run?
A: 7.00

Q: And the pKi [2, 3]?
A: 5.38

Q: `NC(=O)c1ccc(-c2cc(-c3ccnc(N)c3)cc3c(N)n[nH]c23)cc1` [Example 120, 4-(3-Amino-5-(2-aminopyridin-4-yl)-1H-indazol-7-yl)benzamide] was tested. Which pKi [1, 3] did it give?
A: 7.25

Q: What about the pKi [2, 3] of the same molecule?
A: 5.80

Q: With `CC(C)(C)CCc1cc(-c2ccnc(N)c2)cc2c(N)n[nH]c12` [Example 144, 5-(2-Aminopyridin-4-yl)-7-(3,3-dimethylbutyl)-1H-indazol-3-amine] as the molecule, how does the pKi [1, 3] read?
A: 7.82

Q: And the pKi [2, 3]?
A: 6.50

Q: With `CC(C)(C)C#Cc1cc(-c2ccnc(NC(=O)CO)c2)cc2c(N)n[nH]c12` [Example 174, N-(4-(3-Amino-7-(3,3-dimethylbut-1-yn-1-yl)-1H-indazol-5-yl)pyridin-2-yl)-2-hydroxyacetamide] as the molecule, how does the pKi [1, 3] read?
A: 7.70

Q: What about the pKi [2, 3] of the same molecule?
A: 6.21

Q: `Nc1n[nH]c2ccc(-c3ccnc(NCC4CC4)c3)cc12` [Example 15, 5-(2-((Cycipropylmethyl)amino)pyridine-4-yl)-1H-indazol-3-amine] was tested. Which pKi [1, 3] did it give?
A: 6.77

Q: And the pKi [2, 3]?
A: 6.10

Q: How did the pKi [1, 3] turn out when `Nc1n[nH]c2ccc(-c3ccnc(NC(=O)Nc4ccc(Cl)cc4)c3)cc12` [Example 63] was run?
A: 7.32

Q: What about the pKi [2, 3] of the same molecule?
A: 5.76

Q: How did the pKi [1, 4] turn out when `Nc1n[nH]c2ccc(-c3ccnc4[nH]c(CNc5ccccc5COc5ccccc5)cc34)cc12` [Example 253, 5-(2-(((2-(Benzyloxy)phenyl)amino)methyl)-1H-pyrrolo[2,3-b]342yridine-4-yl)-1H-indazol-3-amine] was run?
A: 8.30

Q: And the pKi [2, 4]?
A: 6.48

Q: Which results are given for `Nc1cc(-c2cc(-c3cccc(C=O)c3)c3[nH]nc(N)c3c2)ccn1` [Example 111, 3-(3-Amino-5-(2-aminopyridin-4-yl)-1H-indazol-7-yl)benzaldehyde]?
A: pKi [1, 3]: 7.92; pKi [2, 3]: 7.00

Q: With `Nc1cc(-c2cc(-c3ccccc3Cl)c3[nH]nc(N)c3c2)ccn1` [Example 124, 5-(2-Aminopyridin-4-yl)-7-(2-chlorophenyl)-1H-indazol-3-amine] as the molecule, how does the pKi [1, 3] read?
A: 6.65

Q: And the pKi [2, 3]?
A: 5.75

Q: How did the pKi [1, 4] turn out when `CC(=O)Nc1cc(-c2cc(-c3ccncc3)c3[nH]nc(N)c3c2)ccn1` [Example 197, N-(4-(3-Amino-7-(pyridin-4-yl)-1H-indazol-5-yl)pyridin-2-yl)acetamide] was run?
A: 7.60

Q: And the pKi [2, 4]?
A: 7.15

Q: What does the source list for `CC(C)(C)C#Cc1cc(-c2ccnc(Nc3cn[nH]c3)c2)cc2c(N)n[nH]c12` [Example 311, 5-(2-((1H-Pyrazol-4-yl)amino)pyridin-4-yl)-7-(3,3-dimethylbut-1-yn-1-yl)-1H-indazol-3-amine]?
A: pKi [1, 4]: 8.00; pKi [2, 4]: 6.55

Q: `Nc1n[nH]c2ccc(-c3ccnc(NC(=O)C4CC4)c3)cc12` [Example 33, N-[4-(3-Amino-1H-indazol-5-yl)pyridin-2-yl]cyclopropanecarboxamide] was tested. Which pKi [1, 3] did it give?
A: 7.12

Q: And the pKi [2, 3]?
A: 6.80

Q: `Nc1n[nH]c2ccc(-c3ccnc(NC(=O)NCCO)c3)cc12` [Example 41, 1-(4-(3-Amino-1H-indazol-5-yl)pyridin-2-yl)-3-(2-hydroxyethyl)urea] was tested. Which pKi [1, 3] did it give?
A: 7.68

Q: And the pKi [2, 3]?
A: 6.12

Q: Which results are given for `COCCCNc1cc(-c2cc(C#CC(C)(C)C)c3[nH]nc(N)c3c2)ccn1` [Example 163, 7-(3,3-Dimethylbut-1-yn-1-yl)-5-(2-((3-methoxypropyl)amino)pyridine-4-yl)-1H-indazol-3-amine]?
A: pKi [1, 3]: < 5.52; pKi [2, 3]: < 4.52

Q: How did the pKi [1, 3] turn out when `Nc1n[nH]c2c(Cl)cc(-c3ccnc4[nH]ccc34)cc12` [Example 4, 7-Chloro-5-(1H-pyrrolo[2,3-b]pyridin-4-yl)-1H-indazol-3-amine] was run?
A: 8.40

Q: And the pKi [2, 3]?
A: 7.03

Q: `Nc1n[nH]c2c(C#CCCCCN3CCCCC3)cc(-c3ccnc4[nH]ccc34)cc12` [Example 213, 7-(6-(Piperidin-1-yl)hex-1-yn-1-yl)-5-(1H-pyrrolo[2,3-b]pyridin-4-yl)-1H-indazol-3-amine] was tested. Which pKi [1, 4] did it give?
A: 7.40

Q: What about the pKi [2, 4] of the same molecule?
A: 5.60
